From patent publication US12083115B2, “Methods for treating neurological symptoms associated with lysosomal storage diseases” (Genzyme Corporation, priority 2020, dated 2024)

Tested on: glucosylceramide (GL-1)
Test: Clinical study in GD-3 patients: GL-1 in plasma and CSF
Format: in vivo, human
Conditions: for GL-1 (% change): 52-weeks compared to baseline; for GL-1 concentration, 52-weeks (mean) / GL-1 concentration, 52-weeks: 15 mg/day + imiglucerase; for GL-1 concentration, 52-weeks: all six patients
Protocol: The endpoint assessments are related to safety, CSF biomarkers, pharmacokinetics/pharmacodynamics, systemic disease, and neuroimaging and neurological function (CNS/neurological manifestations).
During the study patients were evaluated for safety and tolerability, CSF and plasma biomarkers (glucosylceramide, GL-1; glucosylsphingosine, lyso-GL1), pharmacokinetics, markers for systemic disease (spleen and liver volume measured by magnetic resonance imaging (MRI), platelet count, hemoglobin levels), indicia of interstitial lung disease (high resolution pulmonary computed tomography (CT)), and horizontal saccadic eye movement. In addition, exploratory biomarkers were quantified in CSF of GD3 patients: ceramide (the precursor of GL-1), chitotriosidase (CHITO), GM3, and GPNMB. Symptoms of ataxia were measured using the SARA scale, neurological symptoms were measured using the trail making test, and functional MRI was used to assess neural connectivity in the brain.
Over all six GD3 patients, plasma and CSF GL-1 and lyso-GL-1 concentrations were as follows:
At Week 52, the CSF lyso-GL1 concentrations for Patient 5 were above the upper limit of quantification (ULOQ; >100 pg/mL), and biomarker results for CSF lyso-GL1 were therefore imputed using the exact ULOQ values. […] Mean results for the other study subjects were as follows (N=10; Patient 5 excluded): […]

[1] = Patient 5 (reduced Compound 2 exposure), Week 52 compared to baseline

## CC(C)(NC(=O)O[C@@H]1CN2CCC1CC2)c1csc(-c2ccc(F)cc2)n1 [Compound 2, (S)-quinuclidin-3-yl 2-(2-(4-fluorophenyl)thiazol-4-yl)propan-2-ylcarbamate]
CSF Concentration, N = 6, 15 mg/day + imiglucerase
  GL-1 (% change): −55.4%
CSF Concentration, N=10, Patient 5 excluded
  GL-1 (% change): −79% ± 12.1%
CSF, N=10, Patient 5 excluded, Baseline 7.11 ng/ml
  GL-1 concentration, 52-weeks (mean): 1.38 ng/mL
CSF, Baseline 6.36 ng/ml
  GL-1 concentration, 52-weeks: 2.48 ng/mL
[1]
  increase in CSF GL1: ~37%
  increase in plasma GL1: ~14%
Plasma Concentration, N = 6, 15 mg/day + imiglucerase
  GL-1 (% change): −71.6%
Plasma Concentration, N=10, Patient 5 excluded
  GL-1 (% change): −77% ± 11.7%
Plasma, N=10, Patient 5 excluded, Baseline 5.66 μg/mL
  GL-1 concentration, 52-weeks (mean): 1280 ng/mL
Plasma, Baseline 6.21 μg/mL
  GL-1 concentration, 52-weeks: 1590 ng/mL
